Assay results taken from patent US20100062986A1, “METHOD TO TREAT BLOOD CELL DEPLETION” (ImmuneRegen Biosciences, Inc., priority 2006, published 2010).

Test system: mice exposed to a lethal dose of 60Co radiation
Test: Radilex treatment of mice after lethal 60Co radiation exposure (survival, blood counts)
Type: in vivo, mice (C57BL/6J)
Excerpt: One purpose of the study is to determine the effects of Radilex™ ([Sar^9, Met(02)^11]-Substance P) after exposure to a lethal dose of ^60Co radiation exposure. Another purpose of the study is to determine if intra-muscular injections of Radilex™ can be as effective as aerosol inhalation of Radilex™ at 8Gy ^60Co radiation level.
Blood draws (2 animals per group rotating every 5 days) for erythrocytes, leukocytes and platelets were taken to assess anemia, neutropenia and thrombocytopenia. Counts of erythrocytes, leukocytes and platelets were taken to assess anemia, neutropenia and thrombocytopenia and act as indicators of bone marrow damage and/or immune system destruction.
The mice received Radilex™ treatment within 2 hours of radiation exposure. The Radilex™ dosage was administered in a volume of 0.01 ml in a daily single treatment via IM injection into the hind limb muscle a single time, for the duration of the study (30 days), or until death.
The following regimens were tested on groups of 9-11 mice:
10 mM Radilex™ single intramuscular treatment
1 mM Radilex™ single intramuscular treatment
1 mM Radilex™ daily intramuscular treatment
75 uM Radilex™ single intramuscular treatment
75 uM Radilex™ daily intramuscular treatment
10 uM Radilex™ daily via nebulizer
50 uM Radilex™ daily via nebulizer
75 uM Radilex™ daily via nebulizer
100 uM Radilex™ daily via nebulizer […]

For “[Sar^9, Met(02)^11]-Substance P [Radilex™]”, the “Radioprotection: effects of lethal exposure” value (mice, lethal 60Co radiation, Radilex intramuscular or via nebulizer, first treatment within 2 hours of exposure) was “Reversed” and the Neutropenia and anemia (surviving animals after 60Co radiation, white cell count and hematocrit) was “Reversed”.
